# Experimental data: article PMC8355587, “The Potential of Lisosan G as a Possible Treatment for Glaucoma” (Frontiers in Pharmacology, 2021)
# Like-named read-outs stand apart in the source and are kept apart here.
# Assays:
# [1] = UHPLC-MS of LG components in the retina after LG gavage; format: in vivo, mouse; conditions: for retinal levels 24 h after LG administration: longest time period investigated; for AUC 0-24h in the retina / C max in the retina: *mg of retinal tissue (wet weight), n = 3; for Tmax: retina, 4.15 g LG/Kg of body weight
# Method: For the analysis of different LG components reaching the retina after LG ingestion, a total of eighteen 6-mo-old D2 mice received an oral administration of LG solution by gavage. The retinas of three mice were dissected and quickly frozen in liquid nitrogen after 0 or 30 min and after 1, 2, 6, or 24 h. The retinas were stored at −80°C until used for mass spectrometry.
# Assuming an average mouse body weight of 20 g, this dose corresponded to 4.15 g LG/Kg of body weight (human equivalent dose, 340 mg LG/Kg of body weight).
# The main components of LG were determined in the LG powder (1 mg sample) using the same procedure as described below for the retinas. The most abundant were gallic acid, 4-hydroxybenzoic acid, quercetin, and nicotinamide (Table 2), therefore these metabolites were chosen as the LG components to be determined in the retina. To this aim, LG was administered to the mice by gavage and the retinas were dissected at different time points. The two retinas from each mouse were pooled together and they were resuspended in 0.2 ml of ice cold ultra-pure water (18 MΏ-cm) to lyse the cells. Three independent samples were analyzed for each time point. The tubes were plunged into dry ice or in a circulating bath at −25°C for 0.5 min and then into a water bath at 37°C for 0.5 min. Subsequently, 0.6 ml of −20°C methanol and then 0.4 ml of −20°C chloroform were added to each tube. The tubes were mixed every 5 min for 30 min, then they were centrifuged at 1000 × g for 1 min at 4°C, before being transferred to −20°C for 2–8 h. After centrifugation at 15,000 × g for 10 min at 4°C, the supernatants were collected and dried. Finally, the dried samples were resuspended in 0.1 ml of water and transferred to glass autosampler vials for LC-MS analysis. The supernatants were injected (20 μl) into a UHPLC system (Ultimate 3000; ThermoFisher Scientific, Waltham, MA, United States) and run in negative ion mode for determination of 4-hydroxy benzoic acid and in positive ion mode for the other. A ReproSil C18 column (2.0 mm × 150 mm, 2.5 μm; Dr Maisch, Ammerbuch-Entringen, Germany) was used for metabolite separation. […] For positive ion mode (+) MS analyses, a 0–100% linear gradient of solvent A (ddH2O, 0.1% formic acid) to B (acetonitrile, 0.1% formic acid) was employed over 20 min returning to 100% A in 3 min. For negative ion mode chromatographic separations A 0–100% linear gradient of solvent A (double-distilled 18 MΏ-cm water, […]) to B (100% acetonitrile, 10 mm ammonium acetate) was employed over 20 min, returning to 100% A in 3 min and a […] solvent A hold. The UHPLC system was coupled online with a mass spectrometer Q Exactive (ThermoFisher) scanning in full MS mode (2 μ scans) at 70,000 resolution in the 60–1000 m/z range. Data files were processed by MAVEN. 8.1 (http://genomics-pubs.princeton.edu/mzroll/) upon conversion of raw files into mzXML format through MassMatrix (Yellow Springs, OH, United States). Standard curves were obtained with several calibration points (2–0.00002 mg) of gallic acid, 4-hydroxybenzoic acid, quercetin, and nicotinamide analytical standards (Sigma Aldrich, St Louis, MO, United States).
# [2] = design: method as in printed; conditions: general statement, no test and ref not given; cited from earlier work
# [3] = D2 mice, LG by gavage 1 ml of 83 mg LG/ml (4.15 g LG/Kg)
Structure (SMILES),"T max in the retina ([1]; D2, mouse, in vivo, po)",retinal levels 24 h after LG administration [1],"AUC 0-24h in the retina [1, 3]","C max in the retina [1, 3]",time within which retinal levels decreased ([1]; after LG administration by gavage),"Tmax ([1]; mouse, po, D2 mice, LG by gavage 1 ml of 83 mg LG/ml (4.15 g LG/Kg), read-out: T max in the retina)","Tmax ([1]; D2, mouse, po, after LG administration by gavage, read-out: time of maximum concentration in the retina)",solubility in water [2],"T max in the retina [1, 3]"
"O=C(O)c1cc(O)c(O)c(O)c1 [Gallic acid, gallic acid]",30 min,still in the range of its maximum concentration,–,–,–,–,–,–,–
"O=c1c(O)c(-c2ccc(O)c(O)c2)oc2cc(O)cc(O)c12 [Quercetin, quercetin]",–,–,0.263 ± 0.049 ng·h/mg,0.061 ± 0.016 ng/mg,≤ 2 h,0.5 h,–,–,–
"NC(=O)c1cccnc1 [Nicotinamide, nicotinamide]",–,"detectable, although low",106.900 ± 52.210 ng·h/mg,8.040 ± 1.274 ng/mg,–,–,6 h,–,–
"O=C(O)c1ccc(O)cc1 [Hydroxy benzoic acid, 4-hydroxybenzoic acid]",–,–,958.500 ± 291.500 ng·h/mg,444.250 ± 109.713 ng/mg,–,–,–,only slightly soluble in water,30 min
